Results from patent US5094723A, “Separation of m-xylene from p-xylene or o-xylene by extractive distillation with alcohols” (priority 1991, dated 1992).

How the values were obtained:
Format in all cases: physicochemical
[1] = Relative volatility, separation of p-xylene from m-xylene, vapor-liquid equilibrium still; details: for effectiveness in bringing m-xylene out as the overhead from p-xylene: alcohols; for Relative Volatility: vapor-liquid equilibrium still
Source text: The data in Table 5 was obtained in a vapor-liquid equilibrium still.
Twenty grams of m-xylene, 60 grams of p-xylene, 30 grams of cyclododecanol and 15 grams of benzyl alcohol were charged to the vapor-liquid equilibrium still and refluxed for five hours.
Twenty grams of m-xylene, 60 grams of p-xylene, 30 grams of cyclododecanol and 15 grams of diisobutyl carbinol were charged to the vapor-liquid equilibrium still and refluxed for four hours.

[2] = Relative volatility, separation of m-xylene from o-xylene, vapor-liquid equilibrium still; details: for effectiveness in separation of m-xylene from o-xylene: in words
Procedure: The data in Table 2 was obtained in a vapor-liquid equilibrium still.
Ten grams of m-xylene, 30 grams of o-xylene and 20 grams of cyclododecanol were charged to a vapor-liquid equilibrium still and refluxed for three hours.
Ten grams of m-xylene, 30 grams of o-xylene, 20 grams of cyclododecanol and ten grams of diisobutyl carbinol were charged to the vapor-liquid equilibrium still and refluxed for 14 hours.

[3] = Extractive distillation run in glass perforated plate rectification column, m-xylene from o-xylene; details: for Relative Volatility: m-xylene from o-xylene, 7.3 theoretical plates, Fenske equation
Procedure: It yielded a relative volatility of 1.31 after one hour and 1.37 after two hours of continuous operation.
225 grams of m-xylene and 75 grams of o-xylene were placed in the stillpot of a glass perforated plate rectification column containing 7.3 theoretical plates, and heated. When refluxing began, an extractive agent comprising cyclododecanol was pumped into the column at a rate of 15 ml/min. The temperature of the extractive agent as it entered the column was 95° C. After establishing the feed rate of the extractive agent, the heat input to the column was adjusted to give a total reflux rate of 40 ml/min. After one hour of operation, overhead and bottoms samples of approximately two ml. were collected and analysed by gas chromatography. The overhead analysis was 95.5% m-xylene, 4.5% o-xylene and the bottoms analysis was 75% m-xylene, 25% o-xylene. Using these compositions in the Fenske equation, with the number of theoretical plates in the column being 7.3, gave an average relative volatility of 1.31 for each theoretical plate. After a total of two hours of continuous operation, samples of overhead and bottoms were again taken and analysed. The overhead analysis was 96.5% m-xylene, 3.5% o-xylene; the bottoms analysis was 73.6% m-xylene, 26.4% o-xylene which is a relative volatility of 1.37.

[4] = * brings the m-xylene out as overhead (m-xylene to p-xylene)
[5] = m-xylene to o-xylene, effective agents (alone or mixed as labelled), vapor-liquid equilibrium still
[6] = p-xylene from m-xylene, in words
[7] = m-xylene from o-xylene, ineffective agents when mixed with cyclododecanol

## CCCCCCCCCCO [1-Decanol]
[1]; in words
  effectiveness in bringing m-xylene out as the overhead from p-xylene: effective in bringing m-xylene out as the overhead
[2]; alcohols
  effectiveness in separation of m-xylene from o-xylene: effective

## CCCCCCCCCCCCO [1-Dodecanol]
[1]; [4]
  Relative Volatility: 1.11
[1]; in words
  effectiveness in bringing m-xylene out as the overhead from p-xylene: effective in bringing m-xylene out as the overhead
[2]; alcohols
  effectiveness in separation of m-xylene from o-xylene: effective
[2]; [5]
  Relative Volatility: 1.31

## CCCCCCCCCO [1-Nonanol]
[1]; [4]
  Relative Volatility: 1.14
[1]; in words
  effectiveness in bringing m-xylene out as the overhead from p-xylene: effective in bringing m-xylene out as the overhead
[2]; alcohols
  effectiveness in separation of m-xylene from o-xylene: effective

## CCCCCCCCO [1-Octanol]
[1]; [6]
  enhancement of relative volatility when mixed with cyclododecanol: enhance the relative volatility
[2]; alcohols
  effectiveness in separation of m-xylene from o-xylene: effective
[2]; [5]
  Relative Volatility: 1.38

## CCCCC(CC)COC(C)=O (stereo not drawn) [2-Ethyl hexyl acetate]
[2]; [7]
  Relative Volatility: 1.22

## CCCCC(CC)CO (stereo not drawn) [2-Ethyl-1-hexanol]
[2]; [7]
  Relative Volatility: 1.29

## Cc1ccccc1[N+](=O)[O-] [2-Nitrotouene]
[2]; [7]
  Relative Volatility: 1.25

## CCCCCCC(C)O (stereo not drawn) [2-Octanol]
[2]; alcohols
  effectiveness in separation of m-xylene from o-xylene: effective
[2]; [5]
  Relative Volatility: 1.30

## OCc1ccccc1 [Benzyl alcohol]
[1]; [4]
  Relative Volatility: 1.19
[1]; in words
  effectiveness in bringing m-xylene out as the overhead from p-xylene: effective in bringing m-xylene out as the overhead
[1]; [6]
  enhancement of relative volatility when mixed with cyclododecanol: enhance the relative volatility

## O=C(OCc1ccccc1)c1ccccc1 [Benzyl benzoate]
[2]; [7]
  Relative Volatility: 1.0

## CCCCOC(=O)CCC [Butyl butyrate]
[2]
  Relative Volatility: 1.26

## OC1CCCCCCCCCCC1 [Cyclododecanol]
[3]; bottoms, 1 hour
  Weight % m-Xylene: 75%
  Weight % o-Xylene: 25%
[3]; bottoms, 2 hours
  Weight % m-Xylene: 73.6%
  Weight % o-Xylene: 26.4%
[3]; 1 hour
  Relative Volatility: 1.31
[3]; 2 hours
  Relative Volatility: 1.37
[3]; overhead, 1 hour
  Weight % m-Xylene: 95.5%
  Weight % o-Xylene: 4.5%
[3]; overhead, 2 hours
  Weight % m-Xylene: 96.5%
  Weight % o-Xylene: 3.5%
[1]; [6]
  xylene brought out as overhead product: brings out the p-xylene as overhead product
[1]; p-xylene to m-xylene (no asterisk)
  Relative Volatility: 1.11
[2]; alcohols
  effectiveness in separation of m-xylene from o-xylene: effective
[2]; [5]
  Relative Volatility: 1.37
[2]; vapor-liquid equilibrium still
  liquid composition, m-xylene: 23.6%
  liquid composition, o-xylene: 76.4%
  vapor composition, m-xylene: 29.8%
  vapor composition, o-xylene: 70.2%

## CCOC(=O)CC(=O)OCC [Diethyl malonate]
[2]; [7]
  Relative Volatility: 1.23

## CCCCCCOCCOCCO [Diethylene glycol hexyl ether]
[2]; [7]
  Relative Volatility: 0.7

## CC(C)CC(O)CC(C)C [Diisobutyl carbinol]
[1]; [4]
  Relative Volatility: 1.23
[1]; in words
  effectiveness in bringing m-xylene out as the overhead from p-xylene: effective in bringing m-xylene out as the overhead
[1]; [6]
  enhancement of relative volatility when mixed with cyclododecanol: enhance the relative volatility
[2]; alcohols
  effectiveness in separation of m-xylene from o-xylene: effective
[2]; [5]
  Relative Volatility: 1.27

## CCCCOCCOC(C)=O [Ethylene glycol butyl ether acetate]
[1]; [6]
  enhancement of relative volatility when mixed with cyclododecanol: enhance the relative volatility
[2]; [7]
  Relative Volatility: 1.1

## CC(C)CCCCCCCO [Isodecanol (ASHLAND), Isodecanol]
[2]; [5]
  Relative Volatility: 1.27

## CC(C)CCCCCCCO [Isodecanol (EXXON), Isodecanol]
[2]; [5]
  Relative Volatility: 1.18

## CC(C)CCCCCCCO [Isodecanol]
[1]; in words
  effectiveness in bringing m-xylene out as the overhead from p-xylene: effective in bringing m-xylene out as the overhead
[2]; alcohols
  effectiveness in separation of m-xylene from o-xylene: effective

## CC(C)CCCCCCO [Isononyl alcohol (EXXON), Isononyl alcohol]
[2]; alcohols
  effectiveness in separation of m-xylene from o-xylene: effective
[2]; [5]
  Relative Volatility: 1.22

## CC(C)CCCCCO [Isooctanol (U.C.), Isooctanol]
[2]; [5]
  Relative Volatility: 1.27

## COC(=O)c1ccccc1 [Methyl benzoate]
[2]; [7]
  Relative Volatility: 1.0

## OCCc1ccccc1 [Phenethyl alcohol]
[1]; [6]
  enhancement of relative volatility when mixed with cyclododecanol: enhance the relative volatility
[2]; [7]
  Relative Volatility: 1.29

## CCC(=O)c1ccccc1 [Propiophenone]
[1]; [6]
  enhancement of relative volatility when mixed with cyclododecanol: enhance the relative volatility
[2]; [7]
  Relative Volatility: 0.8

## CC1COC(=O)O1 (stereo not drawn) [Propylene carbonate]
[2]; [7]
  Relative Volatility: 1.07

## CCCCCCCCCCCO [Undecyl alcohol]
[1]; [4]
  Relative Volatility: 1.14
[1]; in words
  effectiveness in bringing m-xylene out as the overhead from p-xylene: effective in bringing m-xylene out as the overhead
[2]; alcohols
  effectiveness in separation of m-xylene from o-xylene: effective
[2]; [5]
  Relative Volatility: 1.40

## CC(=O)c1ccccc1 [acetophenone]
[2]; mixed with cyclododecanol
  effectiveness in separation of m-xylene from o-xylene: effective relative volatilities
[2]; used alone
  effectiveness in separation of m-xylene from o-xylene: relatively ineffective

## CCCCOCCOCCO [diethylene glycol butyl ether]
[1]; [6]
  enhancement of relative volatility when mixed with cyclododecanol: enhance the relative volatility
[2]; mixed with cyclododecanol
  effectiveness in separation of m-xylene from o-xylene: effective relative volatilities
[2]; used alone
  effectiveness in separation of m-xylene from o-xylene: relatively ineffective

## CCOCCOCCO [diethylene glycol ethyl ether]
[2]; mixed with cyclododecanol
  effectiveness in separation of m-xylene from o-xylene: effective relative volatilities
[2]; used alone
  effectiveness in separation of m-xylene from o-xylene: relatively ineffective

## CN(C)C=O [dimethylformamide]
[1]; [6]
  enhancement of relative volatility when mixed with cyclododecanol: enhance the relative volatility

## C[S+](C)[O-] [dimethylsulfoxide]
[1]; [6]
  enhancement of relative volatility when mixed with cyclododecanol: enhance the relative volatility
[2]; mixed with cyclododecanol
  effectiveness in separation of m-xylene from o-xylene: effective relative volatilities
[2]; used alone
  effectiveness in separation of m-xylene from o-xylene: relatively ineffective

## CCOC(=O)c1ccccc1O [ethyl salicylate]
[2]; mixed with cyclododecanol
  effectiveness in separation of m-xylene from o-xylene: effective relative volatilities
[2]; used alone
  effectiveness in separation of m-xylene from o-xylene: relatively ineffective

## CC(C)CCCCCO [isooctanol]
[2]; alcohols
  effectiveness in separation of m-xylene from o-xylene: effective

## COC(=O)c1ccccc1O [methyl salicylate]
[2]; mixed with cyclododecanol
  effectiveness in separation of m-xylene from o-xylene: effective relative volatilities
[2]; used alone
  effectiveness in separation of m-xylene from o-xylene: relatively ineffective

## CC(=O)Oc1ccccc1 [phenyl acetate]
[2]; mixed with cyclododecanol
  effectiveness in separation of m-xylene from o-xylene: effective relative volatilities
[2]; used alone
  effectiveness in separation of m-xylene from o-xylene: relatively ineffective

## O=S1(=O)CCCC1 [sulfolane]
[2]; mixed with cyclododecanol
  effectiveness in separation of m-xylene from o-xylene: effective relative volatilities
[2]; used alone
  effectiveness in separation of m-xylene from o-xylene: relatively ineffective

## OCC1CCCO1 (stereo not drawn) [tetrahydrofurfuryl alcohol]
[1]; [6]
  enhancement of relative volatility when mixed with cyclododecanol: enhance the relative volatility
